From patent publication US20260022098A1, “BULLEYACONITINE A DERIVATIVE WITH ANALGESIC ACTIVITY, AND PREPARATION METHOD AND APPLICATION THEREOF” (priority 2023, published 2026)
Where two headings read alike, the source gives them in different places. Marks after values point to notes of the source that are not given here.

Columns and labels:
[1] = test system: Kunming mice; test: Analgesic activity by acetic acid-induced writhing method (writhing inhibition rate, ED50); assay type: in vivo; conditions: Mus musculus, sc; for inhibition in vivo at 0.05 mg/kg / inhibition in vivo at 0.5 mg/kg: read-out: Analgesia rate (%) ± SEM; for ED50: Probit regression, read-out: ED50
In short: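 Kunming mice (22±2 g, 1:1 sex, 12 h fasted, 10/group) got compound s.c. (dissolved 1:1 molar with 0.1 mol/L HCl, diluted in saline); 0.7% acetic acid i.p. 15 min later, writhes counted over 15 min. Inhibition rate vs saline blank; ED50 by Probit regression over ≥5 doses.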

[2] = test system: LPS-induced RAW 264.7 cells; test: Griess assay, inhibition of NO release in LPS-induced RAW 264.7 cells; assay type: cell-based; conditions: Griess method, compound at 30 M (so in the source), 22 h
Procedure: (§1) The effect of the compound to be tested on viability of RAW 264.7 cells at a concentration of […] was assessed through MTT assay (Methylthiazolyldiphenyl-tetrazolium bromide assay), and the inhibition on NO release in the inflammatory response of LPS-induced RAW 264.7 cells at 30 µM was determined through Griess method. Specific methods were described as follows.
RAW264.7 cells beyond third passage were added to a culture medium and gently pipetted to detach, forming a cell suspension. 10 μL of the cell suspension was applied onto a hemocytometer slide for counting, and cells were seeded into a 96-well plate at a density of 3×10^4 cells per well with 100 μL of the cell suspension per well. After incubated at 37° C. with […] for 24 h, supernatant was removed. The blank group received 100 μL of DMSO (1/1000 dilution) per well, a LPS (lipopolysaccharide) group received 100 μL of DMSO (1/1000 dilution) per well, and the experimental groups received 100 μL of the test samples per well. The LPS group received 1 μg/ml of LPS by […] per well, and the experimental groups received […] of LPS by 3 μg per well. After 22 h, 50 μL of supernatant was transferred into another 96-well plate, added with Griess Reagent I in a NO assay kit by 50 μL per well, then added with Griess Reagent II by 50 μL per well, and subjected to an absorbance test at 562 nm. Nitric oxide (NO) concentration was calculated based on a standard curve, which was specifically as follows: NO inhibition rate (%)=(ODLPS−ODTest)/(ODLPS−ODBlank)×100).

[3] = test system: RAW 264.7 cells; test: MTT assay, viability of RAW 264.7 cells; assay type: cell-based; conditions: compound diluted to 30 mol/L (so in the source), 12 h
Procedure: as §1
An MTT solution (5 mg/mL) was prepared with a PBS buffer, filter-sterilized through a 0.22 μm filter membrane, and stored protected from light at low temperature. Each compound was dissolved in DMSO to prepare a 50 mmol/L stock solution, and stored from light at low (frozen) temperature. The stock solution was diluted to 30 mol/L with DMEM (Dulbecco's modified Eagle's medium) containing 10% FBS (fetal bovine serum). RAW264.7 cells beyond third passage were added to a culture medium and gently pipetted to detach, forming a cell suspension. 10 μL of the cell suspension was applied onto a hemocytometer slide for counting, and cells were seeded into 96-well plates at a density of 6×10^3 cells per well with 100 μL of the cell suspension per well. After incubated at 37° C. with 5% CO2 for 24 h, supernatant was removed. A zero-adjustment group (CO group) received 100 μL of medium per well, the blank group (CK group) received 100 μL of DMSO (1/1000 dilution) per well, and the experimental groups received 100 μL of the test samples per well. After 12 h, supernatant was removed, and […] of MTT solution was added into each well at 120 μL per well. After incubated in COz at a constant temperature for 4 h, supernatant was removed, and DMSO was added into each well by 150 μL per well. The mixture was shaken at 50 r/min for 10 min and subjected to an absorbance test at 492 nm. Relative cell viability (x) was calculated through a formula as follows: relative cell viability (%)=(ODTest−ODCO)/(ODCK−ODCO)×100%.

[4] = test system: Kunming mice; test: Acute toxicity / median lethal dose (LD50) determination, subcutaneous injection; assay type: in vivo; design: key to Acute toxicity: if death occurred, (+) represented as positive; if no death occurred, (−) represented as negative; conditions: mice administered 20 mg/kg subcutaneously, presence of death within 24 h
In short: (§2)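 Kunming mice (22±2 g, 1:1 male:female, fasted 12 h), 10 per group, given compound subcutaneously at 0.1 mL/10 g in saline after 1:1 molar dissolution in 0.1 mol/L HCl. At least 5 proportional dose groups set from a 20 mg/kg pilot; 24 h survival, LD50 by Probit regression.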

[5] = as above; assay type: in vivo, mice; design: key to Acute toxicity: if death occurred, (+) represented as positive; if no death occurred, (−) represented as negative; conditions: both sexes, Kunming, mouse, in vivo, sc; mice, subcutaneous, survival within 24 h, Probit regression; >X = no death or toxic symptoms at X mg/kg
In short: as §2

[6] = test system: Kunming mice; test: Calculation of therapeutic index (TI = LD50/ED50); assay type: in vivo
Procedure: (3) Calculation of Therapeutic Index (TI)
The therapeutic index of each compound was calculated based on the median effective dose and the median lethal dose, which were specifically as follows: therapeutic index (TI)=median lethal dose (LD50)/median effective dose (ED50).

[7] = dosing concentration 0.05 mg/kg, subcutaneous, acetic acid-induced writhing, mice
[8] = dosing concentration 0.5 mg/kg, subcutaneous, acetic acid-induced writhing, mice
[9] = acetic acid-induced writhing, mice, subcutaneous

Row | Compound | inhibition in vivo at 0.05 mg/kg [1, 7] [%] | inhibition in vivo at 0.5 mg/kg [1, 8] [%] | Inflammatory NO inhibition rate [2] [%] | RAW cell viability [3] | Acute toxicity [4] | ED50 [1, 9] [mg/kg] | LD50 [5] [mg/kg] | TI [6] | inhibition in vivo at 0.05 mg/kg [1] [%] | inhibition in vivo at 0.5 mg/kg [1] [%]
1 | CCO[C@]12C[C@H](OC)[C@@]3(OC(=O)c4cccs4)CC(C1[C@H]3OC(=O)c1cccs1)[C@]13C4[C@@H](OC)C2[C@H]1N(CC)C[C@]4(COC)CC[C@@H]3OC (some centres unmarked) [Compound 17] | 44.44 ± 0.4 | 54.7 ± 1.5 | 47 ± 3.49 | 87.25 ± 2.09 ns % | − |  |  |  |  | 
2 | CCO[C@]12C[C@H](OC)[C@@]3(OC(=O)C4CCCCC4)CC(C1[C@H]3OC(=O)C1CCCCC1)[C@]13C4[C@@H](OC)C2[C@H]1N(CC)C[C@]4(COC)CC[C@@H]3OC (some centres unmarked) [Compound 5] | 49.7 ± 1.1 |  |  | 28.05 ± 4.84 % | − | 0.083 | > 100 | >1204.8 |  | 
3 | CCO[C@]12C[C@H](OC)[C@@]3(OC(=O)c4ccc([N+](=O)[O-])cc4)CC(C1[C@H]3OC(=O)c1ccc(OC)cc1)[C@]13C4[C@@H](OC)C2[C@H]1N(CC)C[C@]4(COC)CC[C@@H]3OC (some centres unmarked) [Compound 39] | 51.1 ± 1.4 |  |  | 6.97 ± 0.93 % | − | 0.195 | > 100 | >512.8 |  | 
4 | CCO[C@]12C[C@H](OC)[C@@]3(OC(=O)CC(C)(C)C)CC(C1[C@H]3OC(=O)CC(C)(C)C)[C@]13C4[C@@H](OC)C2[C@H]1N(CC)C[C@]4(COC)CC[C@@H]3OC (some centres unmarked) [Compound 88] | 47.7 ± 0.6 | 65.07 ± 0.6 |  | 74.05 ± 10.06 % | − | 0.161 | > 100 | >621.1 |  | 
5 | CCN1C[C@]2(COC)CC[C@H](OC)[C@@]34C5C[C@]6(OC(=O)c7cccnc7)[C@@H](OC)C[C@@](OC(C)=O)(C5[C@H]6OC(=O)c5ccc(OC)cc5)C([C@H](OC)C23)[C@@H]14 (some centres unmarked) [Compound 29] | 47.9 ± 1.8 | 65.6 ± 1.3 | 20 ± 1.12 | 116.43 ± 15.6 ^ % | − | 1.48 | 41.2 | 27.9 |  | 
6 | CCO[C@]12C[C@H](OC)[C@@]3(OC(=O)c4ccc(Cl)cc4)CC(C1[C@H]3OC(=O)c1ccc(OC)cc1)[C@]13C4[C@@H](OC)C2[C@H]1N(CC)C[C@]4(COC)CC[C@@H]3OC (some centres unmarked) [Compound 83] | 47 ± 0.9 | 70.8 ± 1.2 | 50 ± 4.52 | 85.21 ± 7.83 ^ % | − | 0.146 | 76.6 | 524.9 |  | 
7 | CCO[C@]12C[C@H](OC)[C@@]3(OC(=O)CC(C)(C)C)CC(C1[C@H]3OC(=O)c1ccc(OC)cc1)[C@]13C4[C@@H](OC)C2[C@H]1N(CC)C[C@]4(COC)CC[C@@H]3OC (some centres unmarked) [Compound 90] | 41.9 ± 1.9 | 59 ± 0.8 | 12 ± 4.85 | 101.74 ± 7.63 ns % | − |  |  |  |  | 
8 | CCO[C@]12C[C@H](OC)[C@@]3(OC(=O)c4ccc([N+](=O)[O-])cc4)CC(C1[C@H]3OC(=O)c1ccc([N+](=O)[O-])cc1)[C@]13C4[C@@H](OC)C2[C@H]1N(CC)C[C@]4(COC)CC[C@@H]3OC (some centres unmarked) [Compound 38] |  |  | 23 ± 5.6 | 99.37 ± 10.29 ns % | − |  |  |  | 42.4 ± 1.5 | 56.2 ± 1
9 | CCCC(=O)O[C@]12CC3C([C@H]1OC(=O)c1ccc(OC)cc1)[C@](OC(C)=O)(C[C@@H]2OC)C1[C@H](OC)C2[C@@]4(COC)CC[C@H](OC)[C@@]32[C@@H]1N(CC)C4 (some centres unmarked) [Compound 79] | 37.9 ± 2 |  | 42 ± 4.69 | 101.29 ± 2.63 ns % | − |  |  |  |  | 
10 | CCO[C@]12C[C@H](OC)[C@@]3(OC(=O)c4ccc(OC)cc4)CC(C1[C@H]3OC(=O)c1ccc(OC)cc1)[C@]13C4[C@@H](OC)C2[C@H]1N(CC)C[C@]4(COC)CC[C@@H]3OC (some centres unmarked) [Compound 13] | 49.4 ± 1.3 |  |  | 8.29 ± 2.8 % | − | 0.082 | > 100 | >1219.5 |  | 
11 | CCO[C@]12C[C@H](OC)[C@@]3(OC(=O)c4ccc(F)cc4)CC(C1[C@H]3OC(=O)c1ccc(F)cc1)[C@]13C4[C@@H](OC)C2[C@H]1N(CC)C[C@]4(COC)CC[C@@H]3OC (some centres unmarked) [Compound 59] | 43.5 ± 2.5 | 57.6 ± 0.9 |  | 7.00 ± 1.38 % | − |  |  |  |  | 
12 | CCO[C@]12C[C@H](OC)[C@@]3(OC(=O)C4CCOCC4)CC(C1[C@H]3OC(=O)c1ccc(OC)cc1)[C@]13C4[C@@H](OC)C2[C@H]1N(CC)C[C@]4(COC)CC[C@@H]3OC (some centres unmarked) [Compound 24] | 46.1 ± 1.7 | 50.9 ± 1.7 | 8 ± 2.69 | 94.97 ± 7.74 ns % | − |  |  |  |  | 
13 | CCO[C@]12C[C@H](OC)[C@@]3(OC(=O)c4ccccc4)CC(C1[C@H]3OC(=O)c1ccccc1)[C@]13C4[C@@H](OC)C2[C@H]1N(CC)C[C@]4(COC)CC[C@@H]3OC (some centres unmarked) [Compound 52] | 47 ± 1.8 | 64.2 ± 1.3 |  | 7.00 ± 0.98 % | − | 0.479 | > 100 | >208.8 |  | 
14 | CCO[C@]12C[C@H](OC)[C@@]3(OC(=O)C4CCOCC4)CC(C1[C@H]3OC(=O)C1CCOCC1)[C@]13C4[C@@H](OC)C2[C@H]1N(CC)C[C@]4(COC)CC[C@@H]3OC (some centres unmarked) [Compound 23] | 57.9 ± 0.6 |  |  | 81.35 ± 3.48 % | − | 0.073 | > 100 | >1369.9 |  | 
15 | Cc1ccc(-c2cc(C(F)(F)F)nn2-c2ccc(S(N)(=O)=O)cc2)cc1 [Celecoxib, reference compound] |  |  | 74 ± 2.2 | 93.09 ± 2.14 ns % |  |  |  |  |  | 
16 | CCN1C[C@]2(COC)CC[C@H](OC)[C@@]34C5C[C@]6(OC(=O)c7ccco7)[C@@H](OC)C[C@@](OC(C)=O)(C5[C@H]6OC(=O)c5ccc(OC)cc5)C([C@H](OC)C23)[C@@H]14 (some centres unmarked) [Compound 12] | 45.7 ± 0.6 | 54.2 ± 1.4 | 17 ± 5.14 | 119.75 ± 1.11***^ % | − |  |  |  |  | 
